Measurements reported in ChEMBL document CHEMBL3853333, “Synthesis of novel arylaminoquinazolinylurea derivatives and their antiproliferative activities against bladder cancer cell line” (2016).

Experiment: Antiproliferative activity against human RT112 cells after 72 hrs by MTT assay
Assay type: functional
Settings: RT-112, 72 h

Structure (SMILES)	GI50 [nM]
COc1cc(Nc2ncnc3c(NC(=O)Nc4ccc5c(c4)OCCO5)cccc23)cc(OC)c1	2750
COc1cc(Nc2ncnc3c(NC(=O)Nc4cc(C(F)(F)F)cc(C(F)(F)F)c4)cccc23)cc(OC)c1	467
COc1cc(Nc2ncnc3c(NC(=O)Nc4ccc(Cl)cc4)cccc23)cc(OC)c1	2490
COc1cc(Nc2ncnc3c(NC(=O)Nc4ccc(C(F)(F)F)cc4[N+](=O)[O-])cccc23)cc(OC)c1	> 20000
COc1cc(Nc2ncnc3c(NC(=O)Nc4cc(Cl)cc(Cl)c4)cccc23)cc(OC)c1	30.2
COc1cc(Nc2ncnc3c(NC(=O)Nc4cccc(Oc5ccccc5)c4)cccc23)cc(OC)c1	14000
COc1cc(Nc2ncnc3c(NC(=O)c4ccc(CN(C)C)cc4)cccc23)cc(OC)c1	4370
CCN(CC)CCCCNc1ncc2cc(-c3cc(OC)cc(OC)c3)c(NC(=O)NC(C)(C)C)nc2n1 [PD-173074]	15
COc1cc(NC(=O)Nc2cccc3c(Nc4cc(OC)cc(OC)c4)ncnc23)cc(OC)c1	366
COc1cc(Nc2ncnc3c(NC(=O)Nc4ccc(C)cc4C)cccc23)cc(OC)c1	1290
COc1cc(Nc2ncnc3c(NC(=O)Nc4ccc(Cl)c(C(F)(F)F)c4)cccc23)cc(OC)c1	> 20000
COc1cc(Nc2ncnc3c(NC(=O)c4ccc(N5CCN(C)CC5)cc4)cccc23)cc(OC)c1	14200
COc1cc(Nc2ncnc3c(NC(=O)Nc4ccc(C(F)(F)F)cc4)cccc23)cc(OC)c1	3920
COc1cc(Nc2ncnc3c(NC(=O)Nc4ccc(C)c(C)c4)cccc23)cc(OC)c1	8.8
CCOC(=O)c1ccc(NC(=O)Nc2cccc3c(Nc4cc(OC)cc(OC)c4)ncnc23)cc1	317
COc1cc(Nc2ncnc3c(NC(=O)Nc4cc(F)cc(F)c4)cccc23)cc(OC)c1	2630

Structure (SMILES)	GI50 [nM]
COc1cc(Nc2ncnc3c(NC(=O)Nc4cc(C)cc(C)c4)cccc23)cc(OC)c1	10100
COc1cc(Nc2ncnc3c(NC(=O)Nc4cccc(Cl)c4Cl)cccc23)cc(OC)c1	63.2
COc1cc(Nc2ncnc3c(NC(=O)Nc4cc(Cl)c(Cl)cc4Cl)cccc23)cc(OC)c1	4890
COc1cc(Nc2ncnc3c(NC(=O)Nc4ccc(Cl)cc4Cl)cccc23)cc(OC)c1	3060
COc1cc(Nc2ncnc3c(NC(=O)Nc4ccc(F)cc4C(F)(F)F)cccc23)cc(OC)c1	2970
COc1cc(Nc2ncnc3c(NC(=O)Nc4cccc(Cc5ccccc5)c4)cccc23)cc(OC)c1	1740
COc1cc(Nc2ncnc3c(NC(=O)Nc4ccccc4Cl)cccc23)cc(OC)c1	356
COc1cc(Nc2ncnc3c(NC(=O)Nc4ccc(Cl)c(Cl)c4)cccc23)cc(OC)c1	6230
COc1cc(Nc2ncnc3c(NC(=O)Nc4ccc(C(F)(F)F)cc4Cl)cccc23)cc(OC)c1	1080
COc1cc(Nc2ncnc3c(NC(=O)c4cc(=O)c5ccccc5o4)cccc23)cc(OC)c1	> 20000
COc1cc(CCc2cc(NC(=O)c3ccc(N4C[C@@H](C)N[C@@H](C)C4)cc3)n[nH]2)cc(OC)c1 [FEXAGRATINIB]	29.2
COc1cc(Nc2ncnc3c(NC(=O)Nc4cccc(C)c4C)cccc23)cc(OC)c1	5910
COc1cc(Nc2ncnc3c(NC(=O)Nc4ccc(F)cc4F)cccc23)cc(OC)c1	2460
COc1cc(Nc2ncnc3c(NC(=O)Nc4cccc(C(F)(F)F)c4F)cccc23)cc(OC)c1	471
COc1cc(Nc2ncnc3c(NC(=O)Nc4ccc([N+](=O)[O-])cc4)cccc23)cc(OC)c1	> 20000
COc1cc(Nc2ncnc3c(NC(=O)c4cccc(N5CCN(C)CC5)c4)cccc23)cc(OC)c1	> 20000
